Like-named read-outs stand apart in the source and are kept apart here.
Tests used:
[1] = test system: Staphylococcus aureus ATCC 6538; details: contact time 5 minutes
From the text: The test substance was hydrogen peroxide at 1 ppm and at 0.3%, which was exposed or not exposed to photons with a wavelength from 0.001 nm-845 nm and applied to target, which included a biological medium inoculated with a viable bacteria concentration of Staphylococcus aureus ATCC 6538. Further, it may be appreciated that the control is the same microorganism.

[2] = test system: E. coli; assay: FIG. 2 microbial reduction by photon enhanced solution; type: cell-based
[3] = test system: microbial counts; details: 1 part per million, 5 minute contact time
From the text: In an example embodiment of a system for progressive reduction of the microbial count in ambient air, a room with 1,000,000 colony forming units (CFUs) is equipped with a system for performing the methods as disclosed herein. A small micron photon/phonon enhanced antimicrobial dry fog of an enhanced oxidizing agent is continuously administered into the ambient air through an existing HVAC system at a concentration of less than 1 part per million.

Row | SMILES | Average CFU/ML [1] [CFU/ML] | CFU/ML ([1]; Replicate 1) [CFU/ML] | CFU/ML ([1]; Replicate 2) [CFU/ML] | microbial (E. coli) reduction [2] [%] | microbial reduction [3]
1 | OO [1 ppm H2O2 no photon activation, hydrogen peroxide] | 4.05E+06 | 4.10E+06 | 4.10E+06 |  | 
2 | OO [.3% H2O2 no photon activation, hydrogen peroxide] | 4.05E+06 | 4.10E+06 | 4.00E+06 |  | 
3 | OO [hydrogen peroxide] |  |  |  | 0.0 | 
4 | OO [standard hydrogen peroxide, hydrogen peroxide] |  |  |  |  | little or no microbial reduction
